From patent US20030083484A1, “Antisense modulation of short heterodimer partner-1 expression” (priority 2001, published 2003)
Strand notation (5' to 3'): a small letter for the sugar, then the base; units joined by * are phosphorothioate-linked, units joined directly phosphodiester-linked; [ ] holds rarer units or linkages, { } end groups; capitals alone tell only the bases. e = 2'-O-(2-methoxyethyl) (MOE); [5mC] = 5-methylcytosine; d = 2'-deoxy (DNA)

What was measured:
[1] = tested on: mouse short heterodimer partner-1 mRNA; assay: Dose-response study: inhibition of mouse short heterodimer partner-1 mRNA levels in primary hepatocyte cells, quantitative real-time PCR; type: cell-based; conditions: averages from two experiments
Protocol: (§1) Primary mouse hepatocytes were prepared from CD-1 mice purchased from Charles River Labs (Wilmington, Mass.) and were routinely cultured in Hepatoyte Attachment Media (Gibco) supplemented with 10% Fetal Bovine Serum (Gibco/Life Technologies, Gaithersburg, Md.), 250 nM dexamethasone (Sigma), and 10 nM bovine insulin (Sigma). Cells were seeded into 96-well plates (Falcon-Primaria #3872) at a density of 10000 cells/well for use in RT-PCR analysis.
(§2) Cells were harvested 16-24 hours after oligonucleotide treatment.
(§3) Vacuum was applied for 15 seconds. […] The elution step was repeated with an additional 60 μL water.
(§4) Total RNA is quantified using RiboGreen™ RNA quantification reagent from Molecular Probes.
(§5) Probes and primers to mouse short heterodimer partner-1 were designed to hybridize to a mouse short heterodimer partner-1 sequence, using published sequence information (GenBank accession number L75567, incorporated herein as SEQ ID NO: 10).
In accordance with the present invention, a subset of the antisense oligonucleotides in Example 16 were further investigated in dose-response studies. Treatment doses were 50, 150 and 300 nM.

[2] = tested on: mouse short heterodimer partner-1 mRNA; assay: Inhibition of mouse short heterodimer partner-1 mRNA levels in primary hepatocytes, quantitative real-time PCR; type: cell-based; design: concentration or dose not given beside the values; conditions: averages from two experiments
Protocol: as §1, §2, §3, §4, §5
All cytidine residues are 5-methylcytidines. […] Data are averages from two experiments. If present, “N.D.” indicates “no data”.

Substance	Percent Inhibition of mouse short heterodimer partner-1 mRNA levels ([1]; 50 nM oligonucleotide) [%]	Percent Inhibition of mouse short heterodimer partner-1 mRNA levels ([1]; 150 nM oligonucleotide) [%]	Percent Inhibition of mouse short heterodimer partner-1 mRNA levels ([1]; 300 nM oligonucleotide) [%]	% INHIB (inhibition of mouse short heterodimer partner-1 mRNA levels) [2] [%]
148284 (antisense eG*eA*eG*eG*e[5mC]*dA*d[5mC]*d[5mC]*dA*dG*dA*d[5mC]*dT*d[5mC]*d[5mC]*eA*eT*eT*e[5mC]*e[5mC]) [compound 148284]	6	55	86	77
148287 (antisense eG*eT*eT*e[5mC]*eT*dG*dT*dA*d[5mC]*dA*dA*dA*dG*dT*d[5mC]*eA*eG*eG*eA*eG) [compound 148287]	44	71	89	74
148286 (antisense eA*eG*eT*e[5mC]*eA*dT*d[5mC]*dA*dA*dG*dG*dG*d[5mC]*dT*dT*eG*e[5mC]*eT*eG*eG) [compound 148286]	42	58	80	71
